What was measured:
Format in all cases: in vivo
[1] = tested on: common mosquitoes (Culex pipiens pallens); test: Biological Test 11: mosquitoes in cup over treated aluminum plate without direct contact, mortality; conditions: 24 h
Description: After 0.64 ml of a 0.05 (w/v) % acetone solution of the present compounds was dropped into an aluminum plate (bottom diameter: 7 cm), acetone was air-dried. Ten female common mosquitoes (Culex pipiens pallens) were left in a polyethylene cup (diameter: 9 cm; depth: 4.5 cm) and the cup was sealed with a 16-mesh nylon net to prevent direct contact of the mosquitoes with the compound. The cup was placed upside down on the aluminum plate at 25° C. for 120 minutes. The cup was then removed from the aluminum plate, and water and feed were given to the mosquitoes. After 24 hours, the mortality was examined (two replicate).

[2] = tested on: webbing clothes moth (Tineola bisselliella); test: Biological Test 13: volatile agent in cup, mortality and fabric damage; conditions: volatile agent (100 μg on filter paper), 950 cm^3 cup, 25° C., 1 week
Description: A wool muslin fabric (2 cm×2 cm in size) was placed on the bottom of a polyethylene cup (bottom diameter: 10 cm, opening part diameter: 12.5 cm, height: 9.5 cm, volume: 950 cm^3). Ten middle instar larvae of webbing clothes moth (Tineola bisselliella) were put in the cup and each of the volatile agents prepared according to the formulation example 14 was hung from the cap in the interior of the cup. After standing at 25° C. for 1 week, the cup was opened, and the mortality and the degree of damage of the wool muslin fabric by the moths were examined (two replicate).

[3] = tested on: common mosquitoes (Culex pipiens pallens); test: Biological Test 8: knock-down of mosquitoes by mosquito-coil; conditions: 1.0 g of 0.3% mosquito-coil in 0.34 m^3 chamber; after 15 minutes
Description: Mosquito-coil containing the present compound in an amount of 0.3% was prepared according to the formulation example 10 for the present compounds. Ten female common mosquitoes (Culex pipiens pallens) were left in a glass chamber (70 cm×70 cm×70 cm: 0.34 m^3) and 1.0 g of 0.3% mosquito-coil having both ends lit was placed in the glass chamber. After 15 minutes, the rate of knocked-down mosquitoes was examined.

SMILES: Cc1ccc(COC(=O)[C@@H]2[C@H](/C=C(\Cl)C(F)(F)F)C2(C)C)o1 (relative stereo) [Compound (1), 5-methyl-2-furfuryl (1RS,cis)-3-(Z-2-chloro-3,3,3-trifluoroprop-1-enyl)-2,2-dimethylcyclopropanecarboxylate]
- mortality at 500 µg/mL [1]: 100%
- degree of damage of the wool muslin fabric [2]: no damage
- mortality ([2]; 10080 min): 100%
- rate of knocked-down mosquitoes [3]: 100%

— patent publication US6048892A, “Ester compound pesticide containing thereof” (Sumitomo Chemical Company, Limited, priority 1999, dated 2000)
